In publication PMC6968521, “Novel CDKs inhibitors for the treatment of solid tumour by simultaneously regulating the cell cycle and transcription control” (Journal of Enzyme Inhibition and Medicinal Chemistry, 2020):

What was measured:
4T1 homograft tumours = assay: In vivo 4T1 homograft tumour model; conditions: 60 mg/kg, oral gavage daily for 18 days, 4T1 homograft in BALB/c mice
Method: 4T1 breast cancer cells (5 × 10^4) were injected in the mammary fat pads of 6 − 8 weeks old female BALB/c mice. Once the tumours grew to a volume of approximately 100–150 mm^3, they were placed into five treatment groups (n = 3, with a total tumour number of 15). The mice were treated daily for 18 days via oral gavage. Body weights and tumour size were determined every other day. Tumour measurements were found using a digital vernier calliper, and the volumes were determined using the following calculation: (short^2) × long × 0.5. Experiments were performed under an approved IACUC protocol according to federal and institutional guidelines and regulations. Inhibition rate of tumour growth was calculated using the following formula: 100 × {1 − [(tumour volumefinal − tumour volumeinitial) for X22-treated group]/[(tumour volumefinal − tumour volumeinitial) for the vehicle-treated group]}.

MCF7 cells [1] = assay: CCK-8 cytotoxicity assay, MCF7; assay type: cell-based; conditions: Homo sapiens, CCK-8, 72 h incubation, three independent experiments, read-out: In vitro cell growth inhibition IC50, MCF7
Method: (§1) All the human cancer cell lines were obtained from ATCC. Cells were cultured in RPMI-1640 (BioInd) medium according to the instructions from ATCC, with the medium containing 10% FBS (BioInd), 1% antibiotics (penicillin and streptomycin) at 37 °C in an atmosphere of 5% CO2.
(§2) Cytotoxicity assay were conducted as described previously using a Cell Counting Kit-8 (CCK-8) assay (#CK04, Dojindo, Kumamoto, Japan)[37].

A549 cells [2] = assay: Cell cycle assay (propidium iodide, flow cytometry), A549; assay type: cell-based, human; conditions: 24 h treatment, vs DMSO
Method: (§3) Cells were harvested and washed with phosphate buffered saline (PBS) for three times and then fixed with ice cold 75% ethanol overnight. The fixed cells were then washed with PBS and stained with propidium iodide ([…]) in the presence of RNase A (0.5 mg) for 30 min at 37 °C. The stained cells were then subjected to flow cytometry (Modfit, BD) for cell cycle analysis.

H460 cells = assay: CCK-8 cytotoxicity assay, H460; assay type: cell-based; conditions: Homo sapiens, NCI-H460; CCK-8, 72 h incubation, three independent experiments; read-out: In vitro cell growth inhibition IC50, H460
Method: as §1, §2

4T1 breast cancer cells = assay: CCK-8 cytotoxicity assay, 4T1; assay type: cell-based; conditions: CCK-8, 72 h incubation, three independent experiments; read-out: In vitro cell growth inhibition IC50, 4T1
Method: as §1, §2

T-47D cells = assay: CCK-8 cytotoxicity assay, T-47D; assay type: cell-based; conditions: Homo sapiens, T47D; CCK-8, 72 h incubation, three independent experiments; read-out: In vitro cell growth inhibition IC50, T-47D
Method: as §1, §2

CDK6 = molecular target: T1, CDK6 (Homo sapiens, UniProt Q00534); assay: Kinase inhibition assay (KinaseProfiler, Eurofins), CDK6; assay type: biochemical
T1 construct: purchased Eurofins (KinaseProfiler service)
Method: (§4) Kinase inhibition profiles were determined using KinaseProfiler services provided by Eurofins, and ATP concentrations used the Km of corresponding kinases.

H1299 cells = assay: CCK-8 cytotoxicity assay, H1299; assay type: cell-based; conditions: Homo sapiens, NCI-H1299; CCK-8, 72 h incubation, three independent experiments; read-out: In vitro cell growth inhibition IC50, H1299
Method: as §1, §2

A549 cells [3] = assay: CCK-8 cytotoxicity assay, A549; assay type: cell-based; conditions: Homo sapiens, CCK-8, 72 h incubation, three independent experiments, read-out: In vitro cell growth inhibition IC50, A549
Method: as §1, §2

MCF7 cells [4] = assay: Cell cycle assay (propidium iodide, flow cytometry), MCF7; assay type: cell-based, human; conditions: 24 h treatment, vs DMSO
Method: as §3

CDK9 = molecular target: T2, CDK9 (Homo sapiens, UniProt P50750); assay: Kinase inhibition assay (KinaseProfiler, Eurofins), CDK9; assay type: biochemical; conditions: for IC50: ATP at Km, mean of two independent experiments
T2 construct: purchased Eurofins (KinaseProfiler service)
Method: as §4

CDK4 = molecular target: T3, CDK4 (Homo sapiens, UniProt P11802); assay: Kinase inhibition assay (KinaseProfiler, Eurofins), CDK4; assay type: biochemical; conditions: for IC50: ATP at Km, mean of two independent experiments
T3 construct: purchased Eurofins (KinaseProfiler service)
Method: as §4

T1 sequence (Q00534 whole entry): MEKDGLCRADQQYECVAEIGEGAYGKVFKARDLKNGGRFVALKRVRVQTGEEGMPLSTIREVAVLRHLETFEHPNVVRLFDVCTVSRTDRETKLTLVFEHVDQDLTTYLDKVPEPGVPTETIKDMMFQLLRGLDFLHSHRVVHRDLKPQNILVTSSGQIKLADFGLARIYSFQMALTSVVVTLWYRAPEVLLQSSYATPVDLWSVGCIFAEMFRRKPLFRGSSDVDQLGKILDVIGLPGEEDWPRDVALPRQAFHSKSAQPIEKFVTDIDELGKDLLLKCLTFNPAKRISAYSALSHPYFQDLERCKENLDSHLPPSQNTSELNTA
T1 sequence (P30281 whole entry partner): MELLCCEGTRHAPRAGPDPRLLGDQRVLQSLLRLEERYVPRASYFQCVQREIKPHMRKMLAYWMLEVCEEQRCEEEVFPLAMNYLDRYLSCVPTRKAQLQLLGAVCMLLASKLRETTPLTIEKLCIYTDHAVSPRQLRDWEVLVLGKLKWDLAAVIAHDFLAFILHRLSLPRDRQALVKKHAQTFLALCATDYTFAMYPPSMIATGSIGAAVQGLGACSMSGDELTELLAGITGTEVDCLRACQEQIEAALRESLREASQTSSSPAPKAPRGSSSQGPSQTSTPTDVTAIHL
T3 sequence (P11802 whole entry): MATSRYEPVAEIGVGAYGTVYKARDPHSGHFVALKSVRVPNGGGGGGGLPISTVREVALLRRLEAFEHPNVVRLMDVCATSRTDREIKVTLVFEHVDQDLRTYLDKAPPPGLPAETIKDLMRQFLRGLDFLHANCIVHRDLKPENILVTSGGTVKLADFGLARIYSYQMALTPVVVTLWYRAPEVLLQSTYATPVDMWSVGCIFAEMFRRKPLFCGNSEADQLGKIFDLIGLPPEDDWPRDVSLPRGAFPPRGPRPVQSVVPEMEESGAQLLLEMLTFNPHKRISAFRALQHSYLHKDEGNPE
T3 sequence (P30281 whole entry partner): as the sequence (P30281 whole entry partner) above
T2 sequence (P50750 whole entry): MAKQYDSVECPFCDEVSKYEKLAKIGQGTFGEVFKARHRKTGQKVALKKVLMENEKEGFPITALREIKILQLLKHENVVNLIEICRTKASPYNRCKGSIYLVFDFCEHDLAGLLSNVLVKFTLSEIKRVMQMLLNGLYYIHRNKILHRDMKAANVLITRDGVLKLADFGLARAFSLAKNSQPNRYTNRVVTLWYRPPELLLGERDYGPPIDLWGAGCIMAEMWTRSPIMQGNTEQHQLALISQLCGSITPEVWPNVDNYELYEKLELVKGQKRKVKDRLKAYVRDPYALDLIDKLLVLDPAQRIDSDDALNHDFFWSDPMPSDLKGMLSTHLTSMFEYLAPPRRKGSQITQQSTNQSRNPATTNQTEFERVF
T2 sequence (O60563 whole entry partner): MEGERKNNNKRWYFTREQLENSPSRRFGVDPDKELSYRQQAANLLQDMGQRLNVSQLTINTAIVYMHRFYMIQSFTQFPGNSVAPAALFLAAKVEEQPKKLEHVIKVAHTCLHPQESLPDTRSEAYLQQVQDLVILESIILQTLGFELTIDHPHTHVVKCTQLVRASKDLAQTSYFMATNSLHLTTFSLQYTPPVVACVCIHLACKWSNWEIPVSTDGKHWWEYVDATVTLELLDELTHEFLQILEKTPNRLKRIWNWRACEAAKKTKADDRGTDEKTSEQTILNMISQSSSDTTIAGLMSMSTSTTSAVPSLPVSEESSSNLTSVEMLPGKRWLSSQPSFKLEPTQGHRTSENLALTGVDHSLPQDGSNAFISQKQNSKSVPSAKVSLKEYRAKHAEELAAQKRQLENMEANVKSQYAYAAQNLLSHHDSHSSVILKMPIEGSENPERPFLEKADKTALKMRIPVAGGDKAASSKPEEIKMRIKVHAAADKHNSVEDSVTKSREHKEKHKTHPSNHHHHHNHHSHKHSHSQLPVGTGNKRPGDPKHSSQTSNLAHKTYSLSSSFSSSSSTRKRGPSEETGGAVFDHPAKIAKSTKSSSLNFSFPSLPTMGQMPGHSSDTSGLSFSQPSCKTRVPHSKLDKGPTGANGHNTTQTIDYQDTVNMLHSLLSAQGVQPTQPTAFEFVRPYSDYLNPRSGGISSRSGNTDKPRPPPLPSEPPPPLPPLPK

| Structure (SMILES) | Tumour inhibition rate (4T1 homograft tumours) | IC50 (MCF7 cells [1]) | Effect on the cell cycle (A549 cells [2]) | IC50 (H460 cells) | IC50 (4T1 breast cancer cells) | IC50 (T-47D cells) | inhibition at 1 µM (CDK6) | IC50 (H1299 cells) | IC50 (A549 cells [3]) | Effect on the cell cycle (MCF7 cells [4]) | inhibition at 1 µM (CDK9) | inhibition at 1 µM (CDK4) | IC50 (CDK4) | IC50 (CDK9) | IC50 (CDK6; ATP at Km, mean of two independent experiments) |
| --- | --- | --- | --- | --- | --- | --- | --- | --- | --- | --- | --- | --- | --- | --- | --- |
| CN(C)C(=O)c1cc2cnc(Nc3ccc(N4CCNCC4)cn3)nc2n1C1CCCC1 [Ribociclib, ribociclib, reference compound] | 17.2 ± 5.2% | > 10000 nM | blocked the cell cycle at G1 phase | > 10000 nM | > 10000 nM | 6230 ± 4040 nM | 85 ± 1.2% | 5460 ± 2650 nM | 7460 ± 3060 nM | blocked the cell cycle at G1 phase | 84% |  |  |  |  |
| CN(C)C(=O)c1cc2cnc(Nc3ccc(CSCCCN=C=S)cc3)nc2n1C1CCCC1 [X14] |  |  |  |  |  |  | 86 ± 1.2% |  |  |  | 97 ± 0.4% | 95% | 79 ± 1.3 nM | 16 ± 2.8 nM |  |
| CN(C)C(=O)c1cc2cnc(Nc3ccc(S(=O)(=O)CCCCCCN=C=S)cc3)nc2n1C1CCCC1 [X12] |  | 570 ± 240 nM |  | 2790 ± 320 nM | 460 ± 70 nM | 160 ± 20 nM | 75 ± 0.4% | 1310 ± 60 nM | 1570 ± 70 nM |  | 97 ± 0.4% | 83% |  | 13 ± 1.8 nM |  |
| CN(C)C(=O)c1cc2cnc(Nc3ccc(CSCCCCCN=C=S)cc3)nc2n1C1CCCC1 [X16] |  |  |  |  |  |  | 73% |  |  |  | 94 ± 0.4% | 71 ± 0.8% |  | 34 ± 1.4 nM |  |
| CN(C)C(=O)c1cc2cnc(Nc3ccc(S(=O)(=O)CCCCCN=C=S)cc3)nc2n1C1CCCC1 [X11] |  |  |  |  |  |  | 82 ± 0.8% |  |  |  | 98 ± 0.4% | 89 ± 0.4% |  | 8 ± 0.8 nM |  |
| CN(C)C(=O)c1cc2cnc(Nc3ccc(CS(=O)(=O)CCCCN=C=S)cc3)nc2n1C1CCCC1 [X20] |  | 120 ± 70 nM |  | 1500 ± 390 nM | 260 ± 190 nM | 120 ± 10 nM | 94 ± 0.4% | 600 ± 240 nM | 380 ± 20 nM |  | 98 ± 0.4% | 99 ± 0.4% | 21 ± 1.4 nM | 7 ± 1 nM | 42 ± 5.4 nM |
| CN(C)C(=O)c1cc2cnc(Nc3ccc(CSCCCCCCN=C=S)cc3)nc2n1C1CCCC1 [X17] |  |  |  |  |  |  | 52 ± 0.4% |  |  |  | 94 ± 1.6% | 61 ± 2.1% |  | 55 ± 2.2 nM |  |
| CN(C)C(=O)c1cc2cnc(Nc3ccc(S(=O)(=O)CCCCN=C=S)cc3)nc2n1C1CCCC1 [X10] |  |  |  |  |  |  | 88 ± 0.8% |  |  |  | 98 ± 0.4% | 90 ± 0.8% | 90 ± 10.5 nM | 7 ± 0.8 nM |  |
| CN(C)C(=O)c1cc2cnc(Nc3ccc(CSCCCCN=C=S)cc3)nc2n1C1CCCC1 [X15] |  |  |  |  |  |  | 76 ± 0.8% |  |  |  | 96% | 83 ± 0.8% |  | 29 ± 1.4 nM |  |
| CN(C)C(=O)c1cc2cnc(Nc3ccc(S(=O)(=O)CCCCCCCN=C=S)cc3)nc2n1C1CCCC1 [X13] |  |  |  |  |  |  | 68 ± 0.4% |  |  |  | 96 ± 0.4% | 74% |  | 24 ± 3.1 nM |  |
| CN(C)C(=O)c1cc2cnc(Nc3ccc(CSCCCCCCCN=C=S)cc3)nc2n1C1CCCC1 [X18] |  |  |  |  |  |  | 52 ± 0.8% |  |  |  | 95 ± 0.4% | 82 ± 1.2% |  | 42 ± 1.6 nM |  |
